In article PMC5382913, “Interactions of the periplasmic binding protein CeuE with Fe(III) n-LICAM^4− siderophore analogues of varied linker length” (Scientific Reports, 2017):

Key:
WT CeuE = molecular target: T1, WT CeuE (Campylobacter jejuni, UniProt Q0P8Q4); assay: Intrinsic fluorescence quenching titration, wild type CeuE; conditions: 240 nM protein in 40 mM Tris-HCl pH 7.5, 150 mM NaCl; 1:1 binding model; triplicate
T1 sequence (Q0P8Q4 44-330): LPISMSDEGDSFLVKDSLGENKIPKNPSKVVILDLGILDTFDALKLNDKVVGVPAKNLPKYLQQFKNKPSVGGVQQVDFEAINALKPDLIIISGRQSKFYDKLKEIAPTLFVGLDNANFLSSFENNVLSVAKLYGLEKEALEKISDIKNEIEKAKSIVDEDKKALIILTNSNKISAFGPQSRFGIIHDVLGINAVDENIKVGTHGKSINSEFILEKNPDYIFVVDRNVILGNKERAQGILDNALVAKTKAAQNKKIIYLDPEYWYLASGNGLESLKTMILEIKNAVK
Excerpt: (§1) The affinities of CeuE for the four Fe-n-Lic complexes were quantified using intrinsic fluorescence quenching, Table 1, with measurements carried out in triplicate. The data were fitted to a 1:1 binding model and analyzed by non-linear regression. […] An attempt to determine the Kd value of Fe-5-Lic by using a more dilute protein solution was unsuccessful because of the inherent decrease in emission intensity reaching the detection limit of the fluorimeter.
(§2) Fluorescence quenching studies with CeuE were carried out on a Hitachi F-4500 fluorescence spectrophotometer as previously reported.
(§3) A 240 nM solution of CeuE in 40 mM Tris-HCl pH 7.5, 150 mM NaCl was prepared and the concentration verified by both the Bradford method and UV-vis absorbance at 280 nm, using the molar absorbance coefficient predicted by ProtParam (15930 mol^−1 dm^3 cm^−1)[43]. The CeuE solution (2 mL) was titrated stepwise with 16 aliquots of a 12 μM Fe-n-Lic solution resulting in a concentration range of Fe-n-Lic of 0 to 1.19 μM. The observed emission intensity was corrected for photomultiplier tube response and buffer subtracted, then integrated between 310 and 410 nm. The data were normalized and analyzed by nonlinear regression using a one-site binding model in DynaFit[26]. Each system was analyzed in triplicate and the average dissociation constants were calculated as reported previously.

CeuE mutant H227A [1] = molecular target: T2, CeuE mutant H227A (Campylobacter jejuni, UniProt Q0P8Q4, H247A); assay: Intrinsic fluorescence quenching titration, CeuE mutant H227A; conditions: 240 nM protein in 40 mM Tris-HCl pH 7.5, 150 mM NaCl; 1:1 binding model; triplicate
T2 sequence (Q0P8Q4 44-330 H247A): T1 sequence (Q0P8Q4 44-330)
Excerpt: as §1
(§4) The binding studies with wild type CeuE were followed by titrations to determine the ligand affinity of all five mutants. Fe-5-Lic was chosen because of its strong binding to wild type CeuE and because its linker length matches that of natural catecholate siderophores. Mutation of the Fe(III)-coordinating tyrosine led to a drastic drop in binding affinity in both the single (Y228F) and the double mutants (H227L/Y288F and H227A/Y288F), with Kd values above 1 μM. In contrast, the effect of mutating the histidine was less pronounced. […] However, there is an additional entropic contribution to consider.
(§5) Subsequently, titrations were carried out with Fe-4-Lic, Fe-6-Lic and Fe-8-Lic to identify trends in the affinity for mutants H227L and H227A (Fig. 6(b) and (c)) (Table 1). The resulting Kd values show trends similar to that observed for wild type, but with systematically weaker binding.
as §2, §3

CeuE mutant H227L [2] = molecular target: T3, CeuE mutant H227L (Campylobacter jejuni, UniProt Q0P8Q4, H247L); assay: Intrinsic fluorescence quenching titration, CeuE mutant H227L; conditions: 240 nM protein in 40 mM Tris-HCl pH 7.5, 150 mM NaCl; 1:1 binding model; triplicate
T3 sequence (Q0P8Q4 44-330 H247L): T1 sequence (Q0P8Q4 44-330)
Excerpt: as §1, §4, §5, §2, §3

CeuE mutant H227L [3] = molecular target: T3, CeuE mutant H227L; assay: Circular dichroism of LMCT band, mutant H227L; assay type: binding; conditions: 50 μM in 100 mM TRIS buffer, 150 mM NaCl, 0.5% DMSO, pH 7.5
Excerpt: (§6) To confirm that the preference for the Λ-configuration is retained in solution, circular dichroism (CD) spectroscopy was used to probe the ligand-to-metal charge transfer (LMCT) band (Fig. 8(a)). The minimum and maximum of the region of the LMCT band at approximately 408 nm and 595 nm, respectively, are indicative of the Λ-configuration[29], with no CD signal observed in the absence of either the protein or ligand, confirming that the protein selectively binds the Λ-configuration.
(§7) The Y228F mutants gave no signal, confirming a lack of Λ-configuration induction, which may indicate a lack of ligand binding. […] Complexes of H227L and H227A were then prepared with all four Fe-n-Lic complexes.
(§8) Solutions of wild type CeuE and mutant proteins were diluted to 5 × 10^−5 M in buffer containing 150 mM NaCl and 0.11 M Tris, adjusted to pH 7.5. […]
(§9) Spectra were recorded using a solution containing 880 μL 0.11 M Tris pH 7.5, 150 mM NaCl buffer, 100 μL (Fe(III)-n-Lic (n = 4, 5, 6, 8) NTA solution and 20 μL to 5 × 10^−5 M CeuE, resulting in a 50:1 excess of ligand to ensure full binding.
(§10) The spectra were recorded from 300–700 nm and buffer subtracted (data pitch […], scan speed 100 nm min^−1, response 2 seconds, bandwidth 2 nm, path length 1 cm). The spectra were recorded 5 times and averaged.

[4] = molecular target: T4, CeuE double mutant H227A/Y288F (Campylobacter jejuni, UniProt Q0P8Q4, H247A/Y308F); assay: Intrinsic fluorescence quenching titration, CeuE double mutant H227A/Y288F; assay type: binding
T4 sequence (Q0P8Q4 44-330 H247A/Y308F): T1 sequence (Q0P8Q4 44-330)
Experimental: as §4, §2
as §3, with “The observed emission intensity was corrected for photomultiplier tube response and buffer subtracted, then integrated between 310 and 410 nm.” left out

[5] = molecular target: T5, CeuE double mutant H227L/Y288F (Campylobacter jejuni, UniProt Q0P8Q4, H247L/Y308F); assay: Intrinsic fluorescence quenching titration, CeuE double mutant H227L/Y288F; assay type: binding
T5 sequence (Q0P8Q4 44-330 H247L/Y308F): T1 sequence (Q0P8Q4 44-330)
Experimental: as §4, §2
as §3, with “The observed emission intensity was corrected for photomultiplier tube response and buffer subtracted, then integrated between 310 and 410 nm.” left out

CeuE single mutant Y228F = molecular target: T6, CeuE single mutant Y228F (Campylobacter jejuni, UniProt Q0P8Q4, Y308F); assay: Intrinsic fluorescence quenching titration, CeuE single mutant Y228F; assay type: binding
T6 sequence (Q0P8Q4 44-330 Y308F): T1 sequence (Q0P8Q4 44-330)
Experimental: as §4, §2
as §3, with “The observed emission intensity was corrected for photomultiplier tube response and buffer subtracted, then integrated between 310 and 410 nm.” left out

CeuE mutant H227A [6] = molecular target: T2, CeuE mutant H227A; assay: Circular dichroism of LMCT band, mutant H227A; assay type: binding; conditions: 50 μM in 100 mM TRIS buffer, 150 mM NaCl, 0.5% DMSO, pH 7.5
Excerpt: as §6, §7, §8, §9, §10

CeuE Y228F mutants = assay: Circular dichroism of LMCT band, Y228F mutants; assay type: binding, Campylobacter jejuni; conditions: 50 μM in 100 mM TRIS buffer, 150 mM NaCl, 0.5% DMSO, pH 7.5
Excerpt: as §6, §7, §8, §9, §10

| SMILES | Kd (WT CeuE) | Kd (CeuE mutant H227A [1]) | Kd (CeuE mutant H227L [2]) | CD signal of Λ-configuration (LMCT band), mutant H227L (CeuE mutant H227L [3]) | Kd [4] | Kd [5] | Kd (CeuE single mutant Y228F) | CD signal of Λ-configuration (LMCT band), mutant H227A (CeuE mutant H227A [6]) | CD signal of Λ-configuration (LMCT band), Y228F mutants (CeuE Y228F mutants) |
| --- | --- | --- | --- | --- | --- | --- | --- | --- | --- |
| O=C(NCCCCNC(=O)c1cccc(O)c1O)c1cccc(O)c1O [Fe-4-Lic] | 21 ± 6 nM | 131 ± 28 nM | 90 ± 30 nM |  |  |  |  |  |  |
| O=C(NCCCCCNC(=O)c1cccc(O)c1O)c1cccc(O)c1O [Fe-5-Lic] | < 10 nM | 35 ± 14 nM | 22 ± 10 nM | Λ-configuration signal was observed | > 1000 nM | > 1000 nM | > 1000 nM | Λ-configuration signal was observed | no signal |
| O=C(NCCCCCCNC(=O)c1cccc(O)c1O)c1cccc(O)c1O [Fe-6-Lic] | 33 ± 8 nM | 41 ± 7 nM | 65 ± 21 nM |  |  |  |  |  |  |
| O=C(NCCCCCCCCNC(=O)c1cccc(O)c1O)c1cccc(O)c1O [Fe-8-Lic] | 58 ± 8 nM | 125 ± 36 nM | 112 ± 21 nM |  |  |  |  |  |  |
